Five molecules from patent US11965199B2, “21-hydroxylation of steroids” (EUROAPI, priority 2014, dated 2024) can be followed below.

Read-outs that look alike come from different tables or passages of the source.

Experiment [1] has as its target T1, bovine CYP21 (Bos taurus, UniProt P00191).
T1 construct: lacking the hydrophobic anchor region, i.e. a truncation of 29 N-terminal amino acid residues; 6xHis (C); expressed in transfected cells
T1 sequence (P00191 with tags, fused parts or gaps): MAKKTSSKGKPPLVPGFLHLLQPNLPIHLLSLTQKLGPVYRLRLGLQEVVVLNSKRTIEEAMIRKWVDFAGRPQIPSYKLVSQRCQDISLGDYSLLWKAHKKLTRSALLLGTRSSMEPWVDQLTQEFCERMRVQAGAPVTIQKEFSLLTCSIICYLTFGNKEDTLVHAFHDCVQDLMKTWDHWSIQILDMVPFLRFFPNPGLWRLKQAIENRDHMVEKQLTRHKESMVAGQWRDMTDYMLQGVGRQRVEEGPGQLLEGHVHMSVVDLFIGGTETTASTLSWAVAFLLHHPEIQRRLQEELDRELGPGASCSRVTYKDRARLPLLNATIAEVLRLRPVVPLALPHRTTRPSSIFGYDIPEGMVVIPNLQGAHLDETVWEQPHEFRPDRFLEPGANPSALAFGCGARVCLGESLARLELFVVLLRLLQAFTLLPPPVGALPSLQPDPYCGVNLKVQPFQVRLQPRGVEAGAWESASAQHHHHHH
Description: Whole cell biotransformation (21-hydroxylation) in E. coli C43(DE3). The format is cell-based.

Experiment [2] has as its target T2, human CYP21 (Homo sapiens, UniProt P08686).
T2 sequence (P08686 with tags, fused parts or gaps): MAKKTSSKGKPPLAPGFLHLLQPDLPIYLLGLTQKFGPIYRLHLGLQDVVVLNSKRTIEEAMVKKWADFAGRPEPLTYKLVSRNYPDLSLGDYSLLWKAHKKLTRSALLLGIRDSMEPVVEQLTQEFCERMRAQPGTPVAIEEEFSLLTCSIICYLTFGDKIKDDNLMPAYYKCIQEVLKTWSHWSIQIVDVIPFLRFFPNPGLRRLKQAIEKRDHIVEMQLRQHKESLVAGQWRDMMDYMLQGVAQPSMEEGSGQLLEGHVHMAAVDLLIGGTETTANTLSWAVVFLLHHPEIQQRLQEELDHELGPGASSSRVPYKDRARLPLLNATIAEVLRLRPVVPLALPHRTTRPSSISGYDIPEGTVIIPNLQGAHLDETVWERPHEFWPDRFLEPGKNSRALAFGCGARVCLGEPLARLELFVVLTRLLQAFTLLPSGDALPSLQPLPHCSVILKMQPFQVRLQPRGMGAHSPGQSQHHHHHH
The experiment is described as above. Type of experiment: cell-based. On the set-up: lacking the hydrophobic anchor region, i.e. a truncation of 29 N-terminal amino acid residues; 6xHis (C); expressed in transfected cells; host or cells: E. coli C43(DE3) transformed with pET17b-based bi-/tricistronic vectors (p21h_...) and pGro12.

The target in experiment [3] is T2, human CYP21. Briefly: In vitro substrate conversion with purified enzymes (reconstituted cytochrome P450 system). The format is biochemical. On the set-up: lacking the hydrophobic anchor region, i.e. a truncation of 29 N-terminal amino acid residues; 6xHis (C); made in house; host or cells: E. coli C43(DE3), co-expressing GroEL/GroES from pGro12. The following applies: defined buffer, NADPH regeneration system, electron transfer proteins of Table 2. How it is done:
(§1) Both enzymes were expressed in the E. coli strain C43(DE3) by coexpression of the E. coli chaperones GroEL/GroES encoded in the vector pGro12. These chaperones ensure a correct protein folding which is important for an incorporation of the heme prosthetic group. In FIG. 3 an SDS-PAGE and a CO difference spectrum of purified bovine CYP21 are shown. […] To determine the binding of medrane to both isozymes the binding constants (KD-values) were determined.
(§2) For an efficient substrate conversion, both isoforms require an electron transfer system which consists of two parts, the cytochrome P450 enzyme itself and one or two electron transfer proteins which are essential for a hydroxylation reaction. Without these transfer proteins, no reaction will take place.
(§3) For in vitro studies and a verification of a substrate conversion, all redox partners were purified.

Experiment [4] has as its target T1, bovine CYP21. Described as above. Type of experiment: biochemical. The settings on record: defined buffer, NADPH regeneration system, electron transfer proteins of Table 2. How it is done: as §1, §2, §3
Where [5] appears, read: bovine CYP21 with redox partners, GroEL/GroES co-expressed.
Setting [6] is: human CYP21 with redox partners, GroEL/GroES co-expressed.

Take `CC(=O)[C@H]1CC[C@H]2[C@@H]3CC[C@H]4CC(=O)CC[C@]4(C)[C@H]3CC[C@]12C` [5α-dihydroprogesterone]: the “hydroxylation at position 21 (steroid conversion)” value (shortened to “hydroxylation”) at bovine CYP21 [1] and on human CYP21 [2] was “able to hydroxylate” in each case.
With `CC(=O)[C@@]1(O)CC[C@H]2[C@@H]3C[C@H](C)C4=CC(=O)C=C[C@]4(C)[C@H]3[C@@H](O)C[C@@]21C` [Deltamedrane, deltamedrane], the “hydroxylation” value on bovine CYP21 [1] (setting [5]) and at human CYP21 [2] (setting [6]) was “able to hydroxylate” throughout.
As to `CC(=O)[C@@]1(O)CCC2C3C[C@H](C)C4=CC(=O)CC[C@]4(C)C3[C@@H](O)C[C@@]21C` (stereo partly drawn) [Medrane, medrane], the “hydroxylation” value at bovine CYP21 [1] (setting [5]) and on human CYP21 [2] (setting [6]) was “able to hydroxylate” in each case. The “in vitro conversion of medrane to premedrol” value on human CYP21 [3] and at bovine CYP21 [4] was “very efficiently” throughout.
As for `CC(=O)[C@H]1CC[C@H]2[C@@H]3CCC4=CC(=O)CC[C@]4(C)[C@H]3CC[C@]12C` [Progesterone, progesterone], the “hydroxylation” value on bovine CYP21 [1] (setting [5]) and on human CYP21 [2] (setting [6]) was “able to hydroxylate” throughout.
Take medroxyprogesterone: the “hydroxylation” value at bovine CYP21 [1] and at human CYP21 [2] was “able to hydroxylate” each time.
